In patent US20240300905A1, “Quinazoline Compounds and Uses” (Prosetta Biosciences, Inc., priority 2023, published 2024):

What follows are compounds tested on Hennes-20 cells (assay: Hennes-20 oncology screen (low vs high plating density, alamar Blue)). Conditions: 72 h.
Type: cell-based
Experimental: All compounds mentioned as active were tested in Hennes. Select hits from the Hennes screen were sent for additional anti-cancer testing.
To screen compounds for oncology activity Hennes-20 cells were plated at low (500 cells/well) versus high (15,000 cells/well) densities and treated with DMSO (vehicle) or dose-titration of compounds. The rationale for this screen is that an intrinsically toxic compound should kill cells regardless of density, including in Hennes-20 cells. However, a compound that selectively triggers the arrest of proliferation will inhibit cell growth when plated at a low density will appear cytotoxic due to inhibition of cell growth when plated at a low density but will appear non-toxic to cells plated at a high density where the cells are approaching confluence and the readout detected by a cell viability assay is already close to the maximum.
To conduct the Hennes-20 screen, two 96 well plates were seeded with Hennes 20 cells in parallel where one was plated at a density of 500 cells/well and the other was plated at a density of 15,000 cells/well. 90 uL of minimum essential media was added to each well and plates were placed in a 37 degrees Celsius incubator for 24 hours. The next day, 10 ul of media containing dilutions of compound in DMSO were added to each plate. Six wells on each plate received 10 ul of media containing only DMSO. Each well was gently mixed 5 times with a 100 ul pipette. Plates were incubated at 37 degrees Celsius for 72 hours then 10 uL of alamar Blue was added to each well. Wells were mixed 5 times then incubated at 37 degrees Celsius for […]. Plates were then read at 530/590.
The rationale for the screen is as follows: Hennes-20 cells lack endogenous apoptosis. Cells plated at low density will proliferate and approach confluence in 72 hrs. A drug that arrests proliferation may have its proliferation blocking effect masked by the triggering of endogenous apoptosis. However, in the Hennes line, lacking endogenous apoptosis, such an arrest is manifest as a dose-dependent maintenance at low cell density. Since the high-density cells are plated close to confluence, the difference between Alamar Blue cell survival readings after 72 hrs reflects the ability of the drug to block proliferation in the low density-plated cells. In the high density-plated cells any diminution of Alamar Blue readout vs vehicle control is due to intrinsic toxicity, not proliferation arrest, since cells were already at confluence. Thus, a compound that appears toxic (low Alamar Blue readings after 72 hrs) on the low-density plate, but which appears non-toxic (high Alamar Blue readings after 72 hrs) on the high-density plate, must be arresting proliferation, since intrinsic compound toxicity should be observed at both low and high cell densities, not selectively on the low-density plate.

Row | Compound | EC50 [nM]
1 | CCCCNc1ncnc2cc(N3CCN(c4cc(NCCC(C)C)c5cncnc5c4)C(C)C3)ccc12 (stereo not drawn) [Compound 67] | 500

Same assay, conditions: 72 h, Hennes-20 cells, 72 hours compound incubation, alamar Blue; read-out: EC50

Row | Compound | EC50 [nM]
2 | CC(C)CCNc1ncnc2cc(N3CCN(c4ccc5c(NCC(C)C)ncnc5c4)CC3)ccc12 [Compound 8] | < 500
3 | CCCCNc1ncnc2cc(N3CCN(c4ccc5c(NCCC(C)C)ncnc5c4)CC3)ccc12 [Compound 22] | < 500
4 | CC(C)CCNc1ncnc2cc(N3CCN(c4ccc5c(NCC(C)(C)C)ncnc5c4)CC3)ccc12 [Compound 24] | < 500
5 | CC(C)CCNc1ncnc2cc(N3CCN(c4ccc5c(NC(C)C)ncnc5c4)CC3)ccc12 [Compound 29] | < 500
6 | CC(C)CCNc1ncnc2cc(N3CCN(c4ccc5c(NCCCN(C)C)ncnc5c4)CC3)ccc12 [Compound 31] | < 12500
7 | CCCCNc1ncnc2cc(N3CCN(c4ccc5c(NCCC(C)C)ncnc5c4)CC3C)ccc12 (stereo not drawn) [Compound 51] | 500
8 | CCCCNc1ncnc2cc(N3CCN(c4ccc5c(NCCC(C)C)ncnc5c4)C(C)C3C)ccc12 (stereo not drawn) [Compound 52] | 2500
9 | CCCCNc1ncnc2cc(N3CCN(c4ccc5c(NCCCC)ncnc5c4)C(C)C3)ccc12 (stereo not drawn) [Compound 53] | 500
10 | CC(C)CCNc1ncnc2cc(N3CC(C)N(c4ccc5c(NCCC(C)C)ncnc5c4)CC3C)ccc12 (stereo not drawn) [Compound 54] | 2500
11 | CC(C)CCNc1ncnc2cc(N3CCN(c4ccc5c(NCCC(C)C)ncnc5c4)C(C)C3C)ccc12 (stereo not drawn) [Compound 55] | 500
12 | CCCCNc1ncnc2cc(N3CCN(c4ccc5c(NCCc6ccccc6)ncnc5c4)CC3)ccc12 [Compound 56] | 12500
13 | CCCCNc1ncnc2cc(N3CCN(c4ccc5c(NCCC6CCNCC6)ncnc5c4)CC3)ccc12 [Compound 57] | > 12500
14 | CC(C)(C)CNc1ncnc2cc(N3CCN(c4ccc5c(NCCc6ccccc6)ncnc5c4)CC3)ccc12 [Compound 58] | 12500
15 | CC(C)(C)CNc1ncnc2cc(N3CCN(c4ccc5c(NCCC6CCNCC6)ncnc5c4)CC3)ccc12 [Compound 59] | > 12500
16 | CC(C)CCN(C)c1ncnc2cc(N3CCN(c4ccc5c(NCCc6ccccc6)ncnc5c4)CC3)ccc12 [Compound 60] | 2500
17 | CC(C)CCN(C)c1ncnc2cc(N3CCN(c4ccc5c(NCCc6ccncc6)ncnc5c4)CC3)ccc12 [Compound 61] | 2500
18 | CC(C)CCN(C)c1ncnc2cc(N3CCN(c4ccc5c(NCCC6CCNCC6)ncnc5c4)CC3)ccc12 [Compound 62] | > 12500
19 | CC(C)CNc1ncnc2cc(N3CCN(c4ccc5c(NCCC6CCNCC6)ncnc5c4)CC3)ccc12 [Compound 63] | > 12500
20 | CC(C)CNc1ncnc2cc(N3CCN(c4ccc5c(NCCc6ccccc6)ncnc5c4)CC3)ccc12 [Compound 64] | 2500
21 | CC(C)CNc1ncnc2cc(N3CCN(c4ccc5c(NCCc6ccncc6)ncnc5c4)CC3)ccc12 [Compound 65] | 2500
22 | CC(C)CCNc1cc(N2CCN(c3ccc4c(NCC(C)(C)C)ncnc4c3)CC2C)cc2ncncc12 (stereo not drawn) [Compound 66] | 2500
23 | CC(C)(C)CNc1ncnc2cc(N3CCN(c4ccc5c(NCCc6ccccn6)ncnc5c4)CC3)ccc12 [Compound 68] | 500
24 | CCCCNc1ncnc2cc(N3CCN(c4ccc5c(NCCc6ccccn6)ncnc5c4)CC3)ccc12 [Compound 69] | 500
25 | CCCCNc1ncnc2cc(N3CCN(c4ccc5c(N6CCC(C)(C)CC6)ncnc5c4)CC3)ccc12 [Compound 70] | 500
26 | CCCCNc1ncnc2cc(N3CCN(c4ccc5c(NCCN6CCN(C)CC6)ncnc5c4)CC3)ccc12 [Compound 71] | > 2500
27 | CCCCNc1ncnc2cc(N3CCN(c4ccc5c(NCCc6cccnc6)ncnc5c4)CC3)ccc12 [Compound 72] | 2500
28 | CCCCNc1ncnc2cc(N3CCN(c4ccc5c(NCCc6ccncc6)ncnc5c4)CC3)ccc12 [Compound 73] | 2500

Same assay, conditions: Hennes-20 cells, 72 hours compound incubation, alamar Blue; read-out: EC50

Row | Compound | EC50 [nM]
29 | CC(C)CCNc1ncnc2cc(N3CCN(c4ccc5c(N(C)CC(C)C)ncnc5c4)CC3)ccc12 [Compound 7] | < 500
30 | CC(C)CCNc1ncnc2cc(N3CCN(c4ccc5c(N(C)CC(C)C)ncnc5c4)CC3)ccc12 [Compound 23] | < 2500
